Measured values as given in US8207208B2, “Angiotensin II receptor antagonists” (Merck Sharp & Dohme Corp., priority 2008, dated 2012).

Key:
[1] = system: reactive nitrogen species (RNS), detected as S-nitrosothiols in rat plasma; assay: DAN assay of reactive nitrogen species in plasma after oral dosing of rats; format: in vivo, Sprague-Dawley rats; settings: fasted SD rats, 40 mpk PO
Protocol: Mononitrate compounds that have been orally dosed to rats result in nitrites (metabolites of nitric oxide) circulating in plasma with maximal concentrations in the 0.5-2 μM range. Similar dosing of isosorbide mononitrate compounds described in this invention results in increased circulating nitrite concentrations. Biochemical evidence for the generation of NO in vivo in response to test compound administration was obtained from studies in Sprague-Dawley rats. Administration of test compound to fasted SD rats (40 mpk, PO) results in the appearance of reactive nitrogen species (RNS), assessed using the diaminonapthalene derivitization (DAN) assay.
RNS were detected as S-nitrosothiols (RNSOs) in EDTA-treated rat plasma using an HPLC fluorescent assay based on the method of Kostka and Park (Methods Enzymol. 1999, 301, 227-235). The method is based on the detection of fluorescent 2,3-naphthotriazole (NAT) formed in the reaction between acidified 2,3-diaminonaphthalene and the nitrosonium moiety of RSNOs released by HgCl2-mediated breakdown of the S—NO bond. The reaction mixture was chromatographed by reversed phase HPLC, and the fluorescent signal of the resolved NAT peak was quantified.
Plasma (20 μL) was first diluted 1:1 in H2O (20 μL) in a black polypropylene untreated microtiter plate. DAN reagent (100 μL per well, 100 μM DAN in 0.1 N HCl, 4 mM HgCl2) was added, and the plate was immediately sealed with an opaque plate mat, vortexed, and incubated in the dark for 10 min. Plates were centrifuged (2000×g, 5 min) and chilled to 4° C. before HPLC analysis. HPLC was carried out on an Agilent 1200 system using a chilled autosampler (4° C.). Samples were chromatographed on a C8 column (Zorbax Eclipse XDB-C8, 4.6×150 mm, 5 μm) with isocratic elution using a mobile phase of 67% MeOH, 0.1% NH4OAc and a flow rate of 2 mL/min. NAT fluorescence was monitored at 450 nm using an excitation wavelength of 360 nm. Calibration curves were prepared using NaNO2 in control plasma.
RNS change for Examples 2, 3, 4, 5, 7, 10, 11 and 12 was measured at 1, 3, 6 and 24 hours, and is shown below.

vessel = vessel relaxation assay

Compound	DAN ΔRNS ([1]; 1 h)	DAN ΔRNS ([1]; 3 h)	DAN ΔRNS ([1]; 6 h)	DAN ΔRNS ([1]; 24 h)	EC50 (vessel)
CCCCc1nc(Cl)c(C(=O)O[C@H](C)OC(=O)O[C@H]2CO[C@H]3[C@@H]2OC[C@H]3O[N+](=O)[O-])n1Cc1ccc(-c2ccccc2-c2nnn[nH]2)cc1 [Example 2, (1S)-1-[({[(3S,3aR,6R,6aS)-6-(nitrooxy)hexahydrofuro[3,2-b]furan-3-yl]oxy}carbonyl)oxy]ethyl 2-butyl-4-chloro-1-{[2′-(1H-tetrazol-5-yl)biphenyl-4-yl]methyl}-1H-imidazole-5-carboxylate]	2.3 ± 1.0 µM	6.1 ± 1.1 µM	4.5 ± 1.4 µM	1.1 ± 0.7 µM	9.5 µM
CCCCc1nc(Cl)c(C(=O)O[C@@H](C)C(=O)O[C@H]2CO[C@H]3[C@@H]2OC[C@H]3O[N+](=O)[O-])n1Cc1ccc(-c2ccccc2-c2nnn[nH]2)cc1 [Example 11, (1S)-1-methyl-2-{[(3S,3aR,6R,6aS)-6-(nitrooxy)hexahydrofuro[3,2-b]furan-3-yl]oxy}-2-oxoethyl 2-butyl-4-chloro-1-{[2′-(1H-tetrazol-5-yl)biphenyl-4-yl]methyl}-1H-imidazole-5-carboxylate]	1.1 ± 1.2 µM	3.3 ± 1.5 µM	1.8 ± 2.0 µM	0.1 ± 1.8 µM	
2-{[(3S,3aR,6R,6aS)-6-(nitrooxy)hexahydrofuro[3,2-b]furan-3-yl]oxy}-2-oxoethyl 2-butyl-4-chloro-1-{[2′-(1H-tetrazol-5-yl)biphenyl-4-yl]methyl}-1H-imidazole-5-carboxylate [Example 9]					5.1 µM
CCOc1nc2cccc(C(=O)O[C@H](C)OC(=O)O[C@H]3CO[C@H]4[C@@H]3OC[C@H]4O[N+](=O)[O-])c2n1Cc1ccc(-c2ccccc2-c2nnn[nH]2)cc1 [Example 4, (1S)-1-[({[(3S,3aR,6R,6aS)-6-(nitrooxy)hexahydrofuro[3,2-b]furan-3-yl]oxy}carbonyl)oxy]ethyl 2-ethoxy-1-{[2′-(1H-tetrazol-5-yl)biphenyl-4-yl]methyl}-1H-benzimidazole-7-carboxylate]	0.9 ± 0.2 µM	2.1 ± 1.4 µM	4.2 ± 2.1 µM	0.6 ± 0.3 µM	8.9 µM
CCOc1nc2cccc(C(=O)O[C@@H](C)OC(=O)O[C@H]3CO[C@H]4[C@@H]3OC[C@H]4O[N+](=O)[O-])c2n1Cc1ccc(-c2ccccc2-c2nnn[nH]2)cc1 [Example 5, (1R)-1-[({[(3S,3aR,6R,6aS)-6-(nitrooxy)hexahydrofuro[3,2-b]furan-3-yl]oxy}carbonyl)oxy]ethyl 2-ethoxy-1-{[2′-(1H-tetrazol-5-yl)biphenyl-4-yl]methyl}-1H-benzimidazole-7-carboxylate]	0.7 ± 0.5 µM	2.5 ± 1.0 µM	2.4 ± 1.2 µM	-0.3 ± 0.6 µM	
CCOc1nc2cccc(C(=O)OC(C)(C)OC(=O)O[C@H]3CO[C@H]4[C@@H]3OC[C@H]4O[N+](=O)[O-])c2n1Cc1ccc(-c2ccccc2-c2nnn[nH]2)cc1 [Example 1, 1-[({[(3S,6R)-6-(nitrooxy)hexahydrofuro[3,2-b]furan-3-yl]oxy}carbonyl)oxy]-1-methylethyl 2-ethoxy-1-{[2′-(1H-tetrazol-5-yl)biphenyl-4-yl]methyl}-1H-benzimidazole-7-carboxylate]					14.2 µM
CCCCc1nc(Cl)c(C(=O)O[C@H]2CO[C@H]3[C@@H]2OC[C@H]3O[N+](=O)[O-])n1Cc1ccc(-c2ccccc2-c2nnn[nH]2)cc1 [Example 7, (3S,3aR,6R,6aS)-6-(nitrooxy)hexahydrofuro[3,2-b]furan-3-yl 2-butyl-4-chloro-1-{[2′-(1H-tetrazol-5-yl)biphenyl-4-yl]methyl}-1H-imidazole-5-carboxylate]	5.4 ± 3.2 µM	1.5 ± 1.2 µM	0.2 ± 0.3 µM	-0.3 ± 0.2 µM	
CCCCc1nc(Cl)c(C(=O)O[C@@H](C)OC(=O)O[C@H]2CO[C@H]3[C@@H]2OC[C@H]3O[N+](=O)[O-])n1Cc1ccc(-c2ccccc2-c2nnn[nH]2)cc1 [Example 3, (1R)-1-[({[(3S,3aR,6R,6aS)-6-(nitrooxy)hexahydrofuro[3,2-b]furan-3-yl]oxy}carbonyl)oxy]ethyl 2-butyl-4-chloro-1-{[2′-(1H-tetrazol-5-yl)biphenyl-4-yl]methyl}-1H-imidazole-5-carboxylate]	0.5 ± 0.4 µM	2.7 ± 0.5 µM	3.0 ± 0.5 µM	0.1 ± 0.7 µM	15.4 µM
CCCCc1nc(Cl)c(C(=O)O[C@H](C)C(=O)O[C@H]2CO[C@H]3[C@@H]2OC[C@H]3O[N+](=O)[O-])n1Cc1ccc(-c2ccccc2-c2nnn[nH]2)cc1 [Example 10, (1R)-1-methyl-2-{[(3S,3aR,6R,6aS)-6-(nitrooxy)hexahydrofuro[3,2-b]furan-3-yl]oxy}-2-oxoethyl 2-butyl-4-chloro-1-{[2′-(1H-tetrazol-5-yl)biphenyl-4-yl]methyl}-1H-imidazole-5-carboxylate]	0.7 ± 0.3 µM	2.0 ± 0.4 µM	1.9 ± 0.7 µM	0.1 ± 0.3 µM	
CCCCc1nc(Cl)c(C(=O)OCCC(=O)O[C@H]2CO[C@H]3[C@@H]2OC[C@H]3O[N+](=O)[O-])n1Cc1ccc(-c2ccccc2-c2nnn[nH]2)cc1 [Example 12, 3-{[(3S,3aR,6R,6aS)-6-(nitrooxy)hexahydrofuro[3,2-b]furan-3-yl]oxy}-3-oxopropyl 2-butyl-4-chloro-1-{[2′-(1H-tetrazol-5-yl)biphenyl-4-yl]methyl}-1H-imidazole-5-carboxylate]	0.5 ± 0.2 µM	1.5 ± 0.9 µM	1.3 ± 0.6 µM	0.0 ± 0.2 µM	20.6 µM
